Experiment [1] concerns patients having Cushing's Disease. The experiment in a line: Mean plasma cortisol to ACTH (C:A) ratio during mifepristone treatment, patients having Cushing's Disease. The class given is in vivo, human. As for the experimental part: (§1) Two groups of patients, which have been previously diagnosed as having Cushing's Disease, Ectopic Cushing's Syndrome using other methods, were enrolled in the study. The investigators were blind to the patients' diagnoses. Blood samples were obtained from each patient within 6 weeks prior to the enrollment in the study (“Day 1” samples). The patients were treated with mifepristone at a starting dose 300 mg daily, increased up to 1200 mg or 20 mg/kg over a period of 10 weeks. The mifepristone treatment continued for a total period of 24 weeks. Blood samples were taken during the course of the treatment, i.e., at the end of 14 days, and 6, 10, 16 and 24 weeks from the initial dose of mifepristone was given. All samples were taken at between 8-10 am on the day of the study. The ACTH levels and the cortisol levels of the plasma produced from the blood samples collected above were assayed using two-site immunometric assays (Mayo Clinic, Test ID ACTH) following the manufacturer's instructions.

Experiment [2] deals with patients having Ectopic Cushing's Syndrome. As to the kind of experiment: Mean plasma cortisol to ACTH (C:A) ratio during mifepristone treatment, patients having Ectopic Cushing's Syndrome. The class given is in vivo, human. As for the experimental part:
as §1

The mark [3] stands for this setting: CD patients (n = 38), plasma, 8-10 am, mifepristone 300 mg daily increased up to 1200 mg or 20 mg/kg, Day 1 baseline mean 3.018.
The mark [4] stands for this setting: Ectopic patients (n = 3), plasma, 8-10 am, mifepristone 300 mg daily increased up to 1200 mg or 20 mg/kg, Day 1 baseline mean 18.552.

SMILES strings stand for the structures.

`CC#C[C@]1(O)CC[C@H]2[C@@H]3CCC4=CC(=O)CCC4=C3[C@@H](c3ccc(N(C)C)cc3)C[C@@]21C` [mifepristone, 17-β-hydrox-11-β-(4-dimethyl-aminophenyl)17-α-(1-propynyl)estra-4,9-dien-3-one]: the “mean ratio of cortisol to ACTH, Week 16” value in experiment [1] (CD patients (n = 32), plasma, 8-10 am, mifepristone 300 mg daily increased up to 1200 mg or 20 mg/kg, Day 1 baseline mean 3.018) is 5.788; in experiment [2] (setting [4]), 0.600. Moreover, the “mean ratio of cortisol to ACTH, Week 10” value in experiment [1] (CD patients (n = 33), plasma, 8-10 am, mifepristone 300 mg daily increased up to 1200 mg or 20 mg/kg, Day 1 baseline mean 3.018) is 6.852; in experiment [2] (setting [4]), 6.722. In addition, the “mean ratio of cortisol to ACTH, Week 6” value in experiment [1] (setting [3]) came out at 3.396; in experiment [2] (setting [4]), 9.241. For the same molecule, the results for the “mean ratio of cortisol to ACTH, Week 24/ET” value in experiment [1] (setting [3]) and in experiment [2] (setting [4]) were 4.999 and 2.154, respectively. Also, the “mean GRA-exposed C:A ratio relative to the mean baseline C:A ratio (peak)” value in experiment [1] (Cushing's Disease patients, peak at the end of 10 weeks of mifepristone treatment) was “more than 2 fold”. Also, the “mean GRA-exposed C:A ratio as % of the baseline ratio” value in experiment [2] (Ectopic Cushing's Syndrome patients, end of 24 weeks treatment) was determined as 11.6%. The “mean GRA-exposed C:A ratio as % of the mean baseline ratio” value in experiment [2] (Ectopic Cushing's Syndrome patients, end of the six weeks' treatment) is “less than 50%”.

Values taken from patent publication US11327083B2, “Treatment and differential diagnosis of Cushing's disease and ectopic Cushing's syndrome” (Corcept Therapeutics, Inc., priority 2016, dated 2022).
